Reference: EP0315019A2, “Fluoromethoxyphenyl-dihydropyridines, process for their preparation and their use in drugs” (BAYER AG, priority 1987, dated 1989)

System: isolierter Meerschweinchen-Herzvorhöfe
Test: Effect on contraction amplitude of isolated guinea pig heart atria
Conditions: Wirkstoffkonzentration 10⁻³ g/l, read-out: Substanzeffekte auf die Kontraktionsamplitude, Änderung in %

SMILES: CCCCCCCCCCOC(=O)C1=C(C)NC(C)=C([N+](=O)[O-])C1c1ccccc1OC(F)F (racemic) [Beispiel 1, 4-(2-Difluormethoxyphenyl)-1,4-dihydro-2,6-dimethyl-3-nitro-pyridin-5-carbonsäure-decylester]
- activation at 1 µg/mL: 45%
